For orientation: IC50 means the concentration that inhibits the measured activity by half. Lower therefore signals greater potency.

Structures are written as SMILES.

The experiment deals with PC3 cells. As to the kind of experiment: NAMPT Cell Proliferation Assay. Format: cell-based. As to conditions: Homo sapiens, PC-3, 120 h, 5 days incubation, cell viability by Cell Titer Glo. In outline: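 Five-day CellTiter-Glo viability readout in PC3 cells grown in RPMI/10% heat-inactivated FBS. Compounds added after overnight attachment as a 10-fold dilution series, […]. Percent inhibition fitted to sigmoidal dose-response to derive IC50.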
With `N#Cc1cccc(C(=O)N2CCC(c3ccc(NC(=O)[C@H]4CCN(c5cccnn5)C4)cc3)CC2)c1` [Example 733, (3S)-N-{4-[1-(3-cyanobenzoyl)piperidin-4-yl]phenyl}-1-(pyridazin-3-yl)pyrrolidine-3-carboxamide], the IC50 stood at 37.5 nM. The same measure for `O=C(Nc1ccc(C2CCN(C(=O)CC(F)(F)F)CC2)cc1)[C@H]1CCN(c2cccnn2)C1` [Example 734, (3S)-1-(pyridazin-3-yl)-N-{4-[1-(3,3,3-trifluoropropanoyl)piperidin-4-yl]phenyl}pyrrolidine-3-carboxamide]: 8.33 nM. For `COCC(=O)N1CCC(c2ccc(NC(=O)[C@H]3CCN(c4cccnn4)C3)cc2)CC1` [Example 735, (3S)-N-{4-[1-(methoxyacetyl)piperidin-4-yl]phenyl}-1-(pyridazin-3-yl)pyrrolidine-3-carboxamide], half-maximal inhibition (IC50) required 68.9 nM. The compound `CC(C)CC(=O)N1CCC(c2ccc(NC(=O)[C@H]3CCN(c4cccnn4)C3)cc2)CC1` [Example 736, (3S)-N-{4-[1-(3-methylbutanoyl)piperidin-4-yl]phenyl}-1-(pyridazin-3-yl)pyrrolidine-3-carboxamide] gave a concentration for half-maximal inhibition (IC50) of 8.09 nM. Compound `N#Cc1ncccc1N1CC(C(=O)Nc2ccc(C3CCN(C(=O)c4ccccc4)CC3)cc2)C1` [Example 737, N-[4-(1-benzoylpiperidin-4-yl)phenyl]-1-(2-cyanopyridin-3-yl)azetidine-3-carboxamide] gave an IC50 of 1860 nM. For `N#Cc1ccncc1N1CC(C(=O)Nc2ccc(C3CCN(C(=O)c4ccccc4)CC3)cc2)C1` [Example 738, N-[4-(1-benzoylpiperidin-4-yl)phenyl]-1-(4-cyanopyridin-3-yl)azetidine-3-carboxamide], the IC50 is 854 nM. With `Cc1cc(F)ncc1N1CC(C(=O)Nc2ccc(C3CCN(C(=O)c4ccccc4)CC3)cc2)C1` [Example 739, N-[4-(1-benzoylpiperidin-4-yl)phenyl]-1-(6-fluoro-4-methylpyridin-3-yl)azetidine-3-carboxamide], 7310 nM corresponded to half-maximal inhibition (IC50). For the compound `N#Cc1cncc(N2CC(C(=O)Nc3ccc(C4CCN(C(=O)c5ccccc5)CC4)cc3)C2)c1` [Example 740, N-[4-(1-benzoylpiperidin-4-yl)phenyl]-1-(5-cyanopyridin-3-yl)azetidine-3-carboxamide], the IC50 is 914 nM.

Compound `Cc1cncc(N2CC(C(=O)Nc3ccc(C4CCN(C(=O)c5ccccc5)CC4)cc3)C2)c1` [Example 741, N-[4-(1-benzoylpiperidin-4-yl)phenyl]-1-(5-methylpyridin-3-yl)azetidine-3-carboxamide] returned a 50% inhibitory concentration (IC50) of 181 nM. With `CC(C)Cn1cc(-c2ncc(C(=O)N[C@H]3CCN(c4cccnn4)C3)s2)cn1` [Example 742, 2-[1-(2-methylpropyl)-1H-pyrazol-4-yl]-N-[(3S)-1-(pyridazin-3-yl)pyrrolidin-3-yl]-1,3-thiazole-5-carboxamide], half-maximal inhibition (IC50) was put at 734 nM. As for `Cc1ncccc1N1CC[C@H](C(=O)Nc2ccc(C3CCN(C(=O)c4ccccc4)CC3)cc2)C1` [Example 743, (3S)—N-[4-(1-benzoylpiperidin-4-yl)phenyl]-1-(2-methylpyridin-3-yl)pyrrolidine-3-carboxamide], the figure is 6620 nM; as for `Cc1ncccc1N1CC[C@H](C(=O)Nc2ccc(C3CCN(C(=O)c4ccccc4F)CC3)cc2)C1` [Example 744, (3S)—N-{4-[1-(2-fluorobenzoyl)piperidin-4-yl]phenyl}-1-(2-methylpyridin-3-yl)pyrrolidine-3-carboxamide], 2720 nM. Turning to `Cc1ncccc1N1CC[C@H](C(=O)Nc2ccc(C3CCN(C(=O)CCC(F)(F)F)CC3)cc2)C1` [Example 745, (3S)-1-(2-methylpyridin-3-yl)-N-{4-[1-(4,4,4-trifluorobutanoyl)piperidin-4-yl]phenyl}pyrrolidine-3-carboxamide], the IC50 was more than 10000 nM. As to `CC(C)Cn1cc(-c2ccc(C(=O)N[C@H]3CCN(c4ccc(Cl)nn4)C3)o2)cn1` [Example 746, N-[(3S)-1-(6-chloropyridazin-3-yl)pyrrolidin-3-yl]-5-[1-(2-methylpropyl)-1H-pyrazol-4-yl]furan-2-carboxamide], the IC50 is more than 10000 nM. Turning to `CC(C)Cn1cc(-c2ccc(C(=O)N[C@H]3CCN(c4cccnn4)C3)o2)cn1` [Example 747, 5-[1-(2-methylpropyl)-1H-pyrazol-4-yl]-N-[(3S)-1-(pyridazin-3-yl)pyrrolidin-3-yl]furan-2-carboxamide], half-maximal inhibition (IC50) required 5920 nM. `CC1(Cn2cc(-c3ccc(NC(=O)C4CN(c5cccnn5)C4)cc3)cn2)CCOCC1` [Example 748, N-(4-{1-[(4-methyltetrahydro-2H-pyran-4-yl)methyl]-1H-pyrazol-4-yl}phenyl)-1-(pyridazin-3-yl)azetidine-3-carboxamide] came in with an IC50 of 2.58 nM. With `CC(C)C(=O)N1CCC(c2ccc(C(=O)N[C@H]3CCN(c4ccc(Cl)nn4)C3)cc2)CC1` [Example 749, N-[(3S)-1-(6-chloropyridazin-3-yl)pyrrolidin-3-yl]-4-[1-(2-methylpropanoyl)piperidin-4-yl]benzamide], the IC50 is more than 10000 nM. In the case of `O=C(Nc1ccc(-c2cnn(CCN3CCNCC3)c2)cc1)C1CN(c2cccnn2)C1` [Example 750, N-(4-{1-[2-(piperazin-1-yl)ethyl]-1H-pyrazol-4-yl}phenyl)-1-(pyridazin-3-yl)azetidine-3-carboxamide], the IC50 turned out to be 226 nM.

For `CC(C)(C)Cn1cc(-c2ccc(NC(=O)C3CN(c4cccnn4)C3)cc2)cn1` [Example 751, N-{4-[1-(2,2-dimethylpropyl)-1H-pyrazol-4-yl]phenyl}-1-(pyridazin-3-yl)azetidine-3-carboxamide], the IC50 came to 2.71 nM.

`CC(C)C(=O)N1CCC(c2ccc(C(=O)N[C@H]3CCN(c4cccnn4)C3)cc2)CC1` [Example 752, 4-[1-(2-methylpropanoyl)piperidin-4-yl]-N-[(3S)-1-(pyridazin-3-yl)pyrrolidin-3-yl]benzamide] gave an IC50 of 2450 nM. As for `CC(C)(O)Cn1cc(-c2ccc(NC(=O)C3CN(c4cccnn4)C3)cc2)cn1` [Example 753, N-{4-[1-(2-hydroxy-2-methylpropyl)-1H-pyrazol-4-yl]phenyl}-1-(pyridazin-3-yl)azetidine-3-carboxamide], the figure is 8.92 nM.

`O=C(N[C@H]1CCN(c2cccnn2)C1)c1ccc(C2CCN(C(=O)c3cccc(F)c3)CC2)s1` [Example 754, 5-[1-(3-fluorobenzoyl)piperidin-4-yl]-N-[(3S)-1-(pyridazin-3-yl)pyrrolidin-3-yl]thiophene-2-carboxamide]: the IC50 came to 94.8 nM. As for `O=C(N[C@H]1CCN(c2cccnn2)C1)c1ccc(C2CCN(C(=O)c3ccc(F)cc3)CC2)s1` [Example 755, 5-[1-(4-fluorobenzoyl)piperidin-4-yl]-N-[(3S)-1-(pyridazin-3-yl)pyrrolidin-3-yl]thiophene-2-carboxamide], the figure is 190 nM; as for `CC1(Cn2cc(-c3ccc(NC(=O)[C@H]4CCN(c5cccnn5)C4)cc3)cn2)CCOCC1` [Example 756, (3S)—N-(4-{1-[(4-methyltetrahydro-2H-pyran-4-yl)methyl]-1H-pyrazol-4-yl}phenyl)-1-(pyridazin-3-yl)pyrrolidine-3-carboxamide], 9.08 nM.

The record behind these values is patent US20130303509A1, “NAMPT INHIBITORS” (AbbVie Inc., priority 2012, published 2013).
